Experimental data taken from patent US10273241B2 (President and Fellows of Harvard College, priority 2013, dated 2019).
Where two headings read alike, the source gives them in different places.

Legend:
[1] = test system: Human Umbilical Vein Endothelial Cells (HUVECs); settings: less potent than cortistatin A; Aoki et al. 2007; cited from earlier work
MV4;11 = experiment: Cell growth assay, MV4;11 AML cell line; type: cell-based, human
Experimental: (§1) For all other cell lines, compounds were serially diluted in medium and dispensed in triplicate in 96-well plates (0.1% DMSO final for assay) followed by the addition of exponentially growing cells at densities ranging from 5,000 to 30,000 cells/well. Cells were also seeded into 2 additional control wells containing vehicle (0.1% DMSO). […] To determine the estimated cell number in each well, cells that were counted in the control well were diluted 3-fold for an 8-point dilution series, and transferred to 384-well plates in duplicate, 20 μL per well. Cells in all other wells were diluted 4-fold and transferred to 384-well plates in duplicate, 20 μL per well. 20 μL of CellTiter-Glo (Promega) was subsequently added to all wells and luminescence was detected using a SPECTRAmax M3. The control well dilution series was fit to a linear regression and used as a standard for calculating the estimated cell number for each well. For days 7 and 10, total estimated cell number represents the split-adjusted theoretical cell number.

MOLM-14 = experiment: Cell growth assay, MOLM-14 AML cell line; type: cell-based, human
Experimental: as §1

K562 = experiment: Cell growth assay, K562 cell line; type: cell-based, human; settings: day 10, lack of activity is taken as evidence of on-target selectivity
Experimental: (§2) For all other cell lines, compounds were serially diluted in medium and dispensed in triplicate in 96-well plates (0.1% DMSO final for assay) followed by the addition of exponentially growing cells at densities ranging from 5,000 to 30,000 cells/well. Cells were also seeded into 2 additional control wells containing vehicle (0.1% DMSO). After 3 days, the number of viable cells in one of the control wells was counted by hemocytometer or MOXI Z (Orflo) and an equal volume of cells for all wells were split-back with fresh vehicle/compounds such that the resulting seeding density for the control well was 5,000-30,000 cells/well, matching the initial seeding density in that well. This procedure was repeated on day 7 and day 10. % growth was calculated as % growth=100×(total estimated cell number in well−day 0 starting cell number)/(total average vehicle estimated cell number−day 0 starting cell number). To determine the estimated cell number in each well, cells that were counted in the control well were diluted 3-fold for an 8-point dilution series, and transferred to 384-well plates in duplicate, 20 μL per well. Cells in all other wells were diluted 4-fold and transferred to 384-well plates in duplicate, 20 μL per well. 20 μL of CellTiter-Glo (Promega) was subsequently added to all wells and luminescence was detected using a SPECTRAmax M3. The control well dilution series was fit to a linear regression and used as a standard for calculating the estimated cell number for each well. For days 7 and 10, total estimated cell number represents the split-adjusted theoretical cell number.

[2] = Pharmacokinetic study of cortistatin A in CD-1 mice; type: in vivo, CD-1 mice; settings: for Cmax: mouse, in vivo, ip
Wnt/beta-catenin pathway = experiment: Wnt/beta-catenin reporter assay (SuperTOPflash luciferase, HEK293STF); type: cell-based; settings: 24 hour treatment with Wnt3A or 10 μM azakenpaullone; read-out: IC50, inhibition of luciferase expression
Experimental: Exponentially growing HEK293STF were plated in triplicate in 96-well plates at a density of 5,000 cells/well in 75 μL. […] Additional triplicate control wells on each plate had media without cells or cells without azakenpaullone. For experiments with Wnt3A conditioned media, after 24 h, compounds were serially diluted in Wnt3A conditioned media as 1× solutions (0.1% DMSO final). Old media was removed from the cells and replaced with the compound/Wnt3A-media. Additional triplicate control wells on each plate had media without cells or cells that were treated with L-conditioned media (no Wnt3A). After 24 h, the CellTiter-Fluor and Steady-Glo assays (Promega) were subsequently performed in series to determine viability and luminescence, respectively, in each well (measurements made on a SPECTRAmax M3, Molecular Devices). Graphs were made in Prism 5 (GraphPad Software, Inc.) with nonlinear regression fit to a sigmoidal dose-response curve (variable slope).

[3] = test system: SET-2 subcutaneous xenograft; experiment: SET-2 subcutaneous xenograft model; type: in vivo, SCID Beige mice; settings: 0.16 mg kg-1 daily, n=10, P<0.001
Experimental: (§3) Efficacy studies using the MV4;11 xenograft model were performed as previously described. See, e.g., Etchin et al., Leukemia (2013) 27, 66-74. Briefly, 2 million MV4;11 mCLP cells were introduced into 7-week-old female NOD-SCID-IL2Rcγ^null (NSG) mice (The Jackson Laboratory) via tail vein injection. The tumor burden was assessed by bioluminescence imaging (BLI) using an IVIS Spectrum system (Caliper Life Sciences). […] At 30 days post-treatment start date, 3 mice per group were sacrificed and blood counts were obtained using Hemavet 950 F instrument (Drew Scientific) and spleen, femur, and peripheral blood cells were collected and analyzed by flow cytometry (LSR Fortessa, BD Biosciences). The mice and a portion of the spleen were also preserved in bouins for histopathology. Mice were sectioned, paraffin-embedded and stained with hematoxylin and eosin. Survival of the drug-treated mice was measured as the time from initiation of therapy until moribund state. Survival benefit was assessed by Kaplan-Meier analysis. […] 2 h after the last dose, the mice were sacrificed, blood counts were obtained, blood chemistry was analyzed and the mice were fixed with bouins for histopathology. […] Once tumors reached an average size of 80-120 mm^3, the mice were treated with vehicle or 0.16 mg kg^−1 daily for the duration of the study.

MV4;11 AML cells = experiment: MV4;11 disseminated leukemia mouse model of AML; type: in vivo, NOD-SCID-IL2Rcγnull (NSG) mice; settings: 0.05 and 0.16 mg/kg once daily for 15 days
Experimental: as §3

[4] = test system: MPLW515L-transduced bone marrow; experiment: Murine model of primary myelofibrosis (MPLW515L); type: in vivo, mice
[5] = Safety testing in healthy CD-1 mice; type: in vivo; settings: 0.16 mg kg-1 once daily for 15 days, 2 hours after last dose
Experimental: as §3

[6] = test system: STAT1 pS727 (CDK8 module kinase activity) in HepG2 cells; experiment: IFN-γ-stimulated STAT1 S727 phosphorylation, western blot; type: cell-based, human; settings: 1 hour compound then 1 hour IFN-γ; STAT1 pY701 and total STAT1 unaltered
Experimental: CDK8 has been reported to […] interferon gamma-stimulated phosphorylation of STAT1 S727. See, e.g., Bancerek et al., Immunity (2013) 38:250-262. […] The cells were lysed and probed by western blot.
(§4) For STAT1 studies, MOLM-14 cells were treated with vehicle (0.1% DMSO) or compound for 1 h followed by the addition of IFNγ (Life Technologies, PHC4031) for 1 h. Cells were then collected, washed twice with cold PBS and snap frozen in liquid nitrogen. For all Western blotting, whole-cell lysates were prepared in RPA buffer (Sigma-Aldrich, R0278) with phosphatase and protease inhibitor additives (Sigma-Aldrich, P8340, P0044, P5762) and protein concentration was determined by BCA assay (Thermo Scientific, 23225). RIPA extracts were resolved by denaturing polyacrylamide gel electrophoresis (Life Technologies, NuPAGE) and transferred to PVDF membrane (Millipore) using the Mini Trans-Blot system (BioRad). The membranes were probed as recommended by the antibody manufacturers and proteins detected by chemiluminescence using horseradish peroxidase-conjugated secondary antibodies. For SMAD2/3 studies, HaCaT cells were treated as described for STAT1 with the addition of TGFβ1 (R&D Systems) in place of IFNγ.

[7] = test system: SMAD2/3 phosphorylation in HaCat cells; experiment: TGF-beta-stimulated SMAD2/3 phosphorylation, western blot; type: cell-based; settings: 1 hour compound then 1 hour TGF-beta
Experimental: as §4

BCL2L11 expression = experiment: BCL2L11 mRNA levels in MV4;11 and MOLM-14 cells; type: cell-based, human; settings: 24 h treatment
[8] = Liver microsome metabolic stability assay; type: in vitro ADME; settings: 1 micromolar, 0.5 mg/ml microsomal protein
Experimental: Test compounds were incubated at 37° C. with liver microsomes pooled from multiple donors at 1 micromolar in the presence of a NADPII regenerating system at 0.5 mg/ml microsomal protein. At 0, 5, 10, 20, 30, and 60 minutes, samples were removed, and mixed with cold acetonitrile containing an internal standard. After protein separation, samples were analyzed by LC/MS/MS for disappearance of the test compound using the ratio of peak area of analyte to internal standard. From the values, the microsome clearance was calculated. Species used were human, Sprague Dawley rat, beagle dog, and CD-1 mouse.

[9] = Human hepatocyte stability assay; type: in vitro ADME; settings: 1 μM
Experimental: Test compounds were incubated in duplicate with cryopreserved hepatocytes at 37° C. The cells were thawed; viable cells counted, and equilibrated according to the supplier's directions. After 30 min equilibration at 37° C. with gentle agitation, the test compounds were added into the cells to give the desired final concentration of 1 μM. The cell suspension was incubated at 37° C. as above. At the indicated times, samples were removed and mixed with an equal volume of ice-cold Stop Solution (acetonitrile containing internal standards). Stopped reactions were incubated at least ten minutes on ice, and an additional volume of water was added. The samples were centrifuged to remove precipitated protein, and the supernatants were analyzed by LC/MS/MS to quantitate the remaining parent. Data were converted to % remaining by dividing by the time zero concentration value. Data were fit to a first-order decay model to determine half-life. From a plot of log (ln) peak area against time, the slope of the line was determined. Subsequently, half-life and intrinsic clearance were calculated using the equations below: Elimination rate constant (k)=(−slope); Half-life (T1/2) min=0.693/k; Intrinsic Clearance (CLint) (ml/min/million cells)=(V×0.693)/T1/2; V=incubation volume ml/number of cells.

SET-2 = experiment: Cell growth assay, SET-2 cell line; type: cell-based; settings: Homo sapiens, SET-2, 240 h; read-out: SET-2 GI50 day 10
Experimental: as §2

[10] = test system: Human Umbilical Vein Endothelial Cells (HUVECs); experiment: HUVEC growth inhibition (CellTiter-Blue, 96 h); type: cell-based; settings: 96 hour treatment
Experimental: HUVECs were plated in triplicate in 96-well plates at a density of 1,000 cells/well in 75 μL. After 24 h, compounds were serially diluted in medium and delivered to cells as 4× solutions in 25 μL (0.1% DMSO final for assay). 96 h after compound addition, CellTiter-Blue (Promega) was added to the wells, plates were incubated at 37° C. for 90 min, and fluorescence (555 nm excitation; 580 nm emission) was detected using a SPECTRAmax M3. IC50 was determined by fitting the data to a four-parameter dose-response curve using GraphPad Prism 5.0.

[11] = Homo sapiens, MV4-11, 240 h, day 10, cells passaged, fresh compound added on days 3 and 7, read-out: MV 4;11 GI50 day 10
[12] = Homo sapiens, MOLM-14, 240 h, day 10, cells passaged, fresh compound added on days 3 and 7, read-out: MOL M14 G150 day 10

For cortistatin J, the “potency at inhibiting HUVEC proliferation relative to cortistatin A” value [1] is listed as 8 fold.
With cortistatin A [CA] the GI50 (MV4;11; day 7, fresh compound added on day 3, read-out: MV4;11 GI50 day 7) was 9 nM, the GI50 (MV4;11; day 10, cells passaged, fresh compound added on days 3 and 7, read-out: MV 4;11 GI50 day 10) was 4 nM and the GI50 (MOLM-14; day 7, fresh compound added on day 3, read-out: MOL M14 GI50 day 7) was 9 nM. For the same compound, the GI50 (MOLM-14; day 10, cells passaged, fresh compound added on days 3 and 7, read-out: MOL M14 G150 day 10) was 5 nM, the GI50 (K562) was over 1000 nM and the “calculated T1/2” value ([2]; 10 mg/kg IP in 10% DMSO/phosphate buffered saline pH6, male CD-1 mice) was 6.06 h. The Cmax ([2]; 1 mg/kg) was 762 nM, the Cmax ([2]; 10 mg/kg, pH 6) was 1400 nM and the “calculated T1/2 between 0.5-2 h” value ([2]; single IP injection 1 mg/kg in 20% HPCD, male CD-1 mice) was 0.55 h. The IC50 (Wnt/beta-catenin pathway) was 1.5 nM, the tumor growth inhibition [3] was 68% and the “efficacy (bioluminescence, survival, spleen and bone marrow burden)” value (MV4;11 AML cells) was “effective”. The mean body weight (MV4;11 AML cells; n=11) was “did not decrease”, the spleen weights ([4]; 0.31 mg/kg and 0.62 mg/kg i.p. once daily, after 6 doses) was “significant reduction” and the “allele burden (GFP percentage in peripheral blood)” value ([4]; after 4 doses of daily treatment) was “significant reduction”. The “complete blood count (CBC) vs vehicle” value [5] was “no significant differences”, the “inhibition of IFN-γ-stimulated increase in STAT1 pS727” value [6] was “potently inhibited” and the “TGF-beta-stimulated SMAD2/3 phosphorylation” value [7] was “dose-dependently inhibited”. For the same compound, the “mRNA levels of BCL2L11” value (BCL2L11 expression) was “dose-dependently increases”.
For `C[C@]12CC=C3C=C4CC[C@H]([N+](C)(C)[O-])CC45CC[C@]3(O5)[C@@H]1CC[C@@H]2c1ccc2ccncc2c1` [14BNO, 14B-N-Oxide], the GI50 (MV4;11; [11]) was 1 nM, the GI50 (MOLM-14; [12]) was 2 nM and the GI50 (K562; Homo sapiens, K562, 240 h) was over 1000 nM. The “metabolic stability in liver microsomes compared with 14B” value [8] was “increased stability”, the “metabolic stability in liver microsomes compared with 14B” value ([8]; listed as N-oxide of compound 14B) was “improved stability” and the “half-life and clearance rate in hepatocytes” value [9] was “acceptable half-life and clearance rate”.
Work on `C[C@]12CC=C3C=C4CC[C@@H](N5CCOCC5)C[C@]45CCC3(O5)[C@@H]1CC[C@@H]2c1ccc2ccncc2c1` [15A, α-morpholine] yielded a GI50 (MV4;11; [11]) of 2.5 nM, a GI50 (MOLM-14; [12]) of 20 nM and a GI50 (SET-2) of 8 nM.
For `C[C@]12CC=C3C=C4[C@@H](O)[C@H](O)[C@@H]([N+](C)(C)[O-])CC45CC[C@]3(O5)[C@@H]1CC[C@@H]2c1ccc2ccncc2c1` [cortistatin A N-oxide, Cortistatin A N-oxide], the “inhibition of HUVEC proliferation compared with cortistatin A” value [10] was “equipotent”.
With `CN[C@@H]1CCC2=CC3=CC[C@]4(C)C(c5ccc6ccncc6c5)CC[C@H]4C34CC[C@]2(C1)O4` (stereo partly drawn) [24A, α-monomethylamine] the GI50 (MV4;11; [11]) was 1 nM, the GI50 (MOLM-14; [12]) was 18 nM and the GI50 (SET-2) was 0.5 nM.
`C[C@]12CC=C3C=C4CC[C@@H](N5CCCC5)C[C@]45CC[C@]3(O5)[C@@H]1CC[C@@H]2c1ccc2ccncc2c1` [19A, α-pyrrolidine] showed a GI50 (MV4;11; [11]) of 1.5 nM, a GI50 (MOLM-14; [12]) of 5 nM and a GI50 (SET-2) of 0.4 nM.
